Patent US12319672B2, “Alpha-D-galactopyranoside derivatives” (Idorsia Pharmaceuticals Ltd, priority 2019, dated 2025)

How the values were obtained:
[1] = biological target: human Gal-1 (hGal-1); test: Competitive binding assay: binding of biotinylated hGal-1 to microplate-adsorbed asialofetuin (ASF); details: Activities on hGal-1; mean values of several measurements
Summary of the method: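 Spectrophotometric readout (streptavidin-peroxidase, ABTS) of biotinylated galectin retained on ASF-coated wells. Biotinylated hGal-1 or hGal-3, 300-1000 ng/mL, co-incubated with test compound 3 h at 4° C, then washed. Mean IC50 from repeat runs.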

[2] = biological target: human Gal-3 (hGal-3) (Homo sapiens (Human), UniProt P17931); test: Competitive binding assay: binding of biotinylated hGal-3 to microplate-adsorbed asialofetuin (ASF); details: Activity on hGal-3; mean values of several measurements
Summary of the method: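 Compounds in DMSO dilution series competed with 300-1000 ng/mL biotinylated hGal-3 for asialofetuin adsorbed on the plate (3 h, 4° C). Streptavidin-peroxidase at 80 ng/mL (1 h, 4° C) with ABTS gave a spectrophotometric read-out, and IC50 was reported as the mean of repeat runs.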

Chain of human Gal-1 (hGal-1) (P09382 2-135 limits assumed): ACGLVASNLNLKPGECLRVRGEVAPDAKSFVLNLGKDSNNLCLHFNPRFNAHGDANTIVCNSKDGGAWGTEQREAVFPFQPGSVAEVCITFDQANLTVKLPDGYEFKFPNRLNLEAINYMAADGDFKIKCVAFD
Chain of human Gal-3 (hGal-3) (P17931 whole entry): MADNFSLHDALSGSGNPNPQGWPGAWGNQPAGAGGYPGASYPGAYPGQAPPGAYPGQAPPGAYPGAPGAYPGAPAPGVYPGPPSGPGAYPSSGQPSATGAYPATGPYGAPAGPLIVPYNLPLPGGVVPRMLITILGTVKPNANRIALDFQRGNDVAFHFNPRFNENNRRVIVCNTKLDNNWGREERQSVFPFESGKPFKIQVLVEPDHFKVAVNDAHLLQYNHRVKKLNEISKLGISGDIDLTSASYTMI

| SMILES | IC50 [1] [nM] | IC50 [2] [nM] |
| --- | --- | --- |
| COc1cc(F)c(F)cc1-c1cn([C@H]2[C@@H](O)[C@@H](CO)O[C@H](CC3CC(C4CCN(C(=O)OC(C)(C)C)CC4)=NO3)[C@@H]2O)nn1 (stereo partly shown) [Ex 1.106] | 1530 | 490 |
| CC(C)(C)OC(=O)N1CCC(C2=NOC(C[C@H]3O[C@H](CO)[C@H](O)[C@H](n4cc(-c5ccc(Cl)c(Cl)c5)nn4)[C@H]3O)C2)CC1 (stereo partly shown) [Ex 1.107] | 400 | 110 |
| COc1cc(-c2cn([C@H]3[C@@H](O)[C@@H](CO)O[C@H](CC4CC(C5CCN(C(=O)OC(C)(C)C)CC5)=NO4)[C@@H]3O)nn2)cc(F)c1F (stereo partly shown) [Ex 1.108] | 1690 | 180 |
| CC(C)(C)OC(=O)N1CCC(C2=NOC(C[C@H]3O[C@H](CO)[C@H](O)[C@H](n4cc(-c5nc6ccccc6s5)nn4)[C@H]3O)C2)CC1 (stereo partly shown) [Ex 1.109] | 210 | 1600 |
| COc1cc(-c2cn([C@H]3[C@@H](O)[C@@H](CO)O[C@H](CC4CC(C5CCN(C(=O)OC(C)(C)C)CC5)=NO4)[C@@H]3O)nn2)ccc1Cl (stereo partly shown) [Ex 1.110] | 2240 | 250 |
| COc1cc(OC)c(-c2cn([C@H]3[C@@H](O)[C@@H](CO)O[C@H](CC4CC(C5CCN(C(=O)OC(C)(C)C)CC5)=NO4)[C@@H]3O)nn2)cc1F (stereo partly shown) [Ex 1.111] | 11500 | 1660 |
| Cc1c(F)cccc1-c1cn([C@H]2[C@@H](O)[C@@H](CO)O[C@H](CC3CC(C4CCN(C(=O)OC(C)(C)C)CC4)=NO3)[C@@H]2O)nn1 (stereo partly shown) [Ex 1.112] | 770 | 1000 |
| COc1ccc(-c2cn([C@H]3[C@@H](O)[C@@H](CO)O[C@H](CC4CC(C5CCN(C(=O)OC(C)(C)C)CC5)=NO4)[C@@H]3O)nn2)cc1 (stereo partly shown) [Ex 1.113] | 640 | 1060 |
| CO[C@@H]1[C@@H](n2cc(-c3cc(F)c(F)c(F)c3)nn2)[C@@H](O)[C@@H](CO)O[C@@H]1Cc1cc(C2CCC(=O)NC2)no1 (stereo partly shown) [Ex 1.114] | 1360 | 75 |
| CO[C@@H]1[C@@H](n2cc(-c3cccc(F)c3)nn2)[C@@H](O)[C@@H](CO)O[C@@H]1CC1CC(C2CCN(C(=O)OC(C)(C)C)CC2)=NO1 (stereo partly shown) [Ex 1.115] | 940 | 440 |
| CO[C@@H]1[C@@H](n2cc(-c3ccc(Cl)c(F)c3)nn2)[C@@H](O)[C@@H](CO)O[C@@H]1CC1CC(C2CCN(C(=O)OC(C)(C)C)CC2)=NO1 (stereo partly shown) [Ex 1.116] | 1750 | 170 |
| CO[C@@H]1[C@@H](n2cc(-c3ccc(Br)c(F)c3)nn2)[C@@H](O)[C@@H](CO)O[C@@H]1CC1CC(C2CCN(C(=O)OC(C)(C)C)CC2)=NO1 (stereo partly shown) [Ex 1.117] | 1140 | 330 |
| CO[C@@H]1[C@@H](n2cc(-c3cc(F)cc(F)c3)nn2)[C@@H](O)[C@@H](CO)O[C@@H]1CC1CC(C2CCN(C(=O)OC(C)(C)C)CC2)=NO1 (stereo partly shown) [Ex 1.118] | 1470 | 330 |
| CO[C@@H]1[C@@H](n2cc(-c3cc(F)c(F)c(F)c3)nn2)[C@@H](O)[C@@H](CO)O[C@@H]1Cc1cc(-c2ccn(C)c(=O)c2)on1 [Ex 1.119] | 4170 | 260 |
| CO[C@@H]1[C@@H](n2cc(-c3cc(F)c(F)c(F)c3)nn2)[C@@H](O)[C@@H](CO)O[C@@H]1Cc1cc(C2CCCCC2)no1 [Ex 1.120] | 10600 | 290 |
| CO[C@@H]1[C@@H](n2cc(-c3ccc(Cl)c(F)c3)nn2)[C@@H](O)[C@@H](CO)O[C@@H]1Cc1cc(C2CCN(C(=O)OC(C)(C)C)CC2)on1 [Ex 1.121] | 1090 | 82 |
| CO[C@@H]1[C@@H](n2cc(-c3cc(F)cc(F)c3)nn2)[C@@H](O)[C@@H](CO)O[C@@H]1Cc1cc(C2CCN(C(=O)OC(C)(C)C)CC2)on1 [Ex 1.122] | 720 | 140 |
| CO[C@@H]1[C@@H](n2cc(-c3cccc(F)c3)nn2)[C@@H](O)[C@@H](CO)O[C@@H]1Cc1cc(C2CCN(C(=O)OC(C)(C)C)CC2)no1 [Ex 1.123] | 140 | 140 |
| CO[C@@H]1[C@@H](n2cc(-c3ccc(Cl)c(F)c3)nn2)[C@@H](O)[C@@H](CO)O[C@@H]1Cc1cc(C2CCN(C(=O)OC(C)(C)C)CC2)no1 [Ex 1.124] | 800 | 31 |
| CO[C@@H]1[C@@H](n2cc(-c3ccc(Br)c(F)c3)nn2)[C@@H](O)[C@@H](CO)O[C@@H]1Cc1cc(C2CCN(C(=O)OC(C)(C)C)CC2)no1 [Ex 1.125] | 1000 | 140 |
| CO[C@@H]1[C@@H](n2cc(-c3cc(F)cc(F)c3)nn2)[C@@H](O)[C@@H](CO)O[C@@H]1Cc1cc(C2CCN(C(=O)OC(C)(C)C)CC2)no1 [Ex 1.126] | 440 | 81 |
| CO[C@@H]1[C@@H](n2cc(-c3cc(F)c(F)c(F)c3)nn2)[C@@H](O)[C@@H](CO)O[C@@H]1Cc1cc(-c2nc(Br)cs2)on1 [Ex 1.127] | 9840 | 300 |
| CO[C@@H]1[C@@H](n2cc(-c3cc(F)c(F)c(F)c3)nn2)[C@@H](O)[C@@H](CO)O[C@@H]1CC1=NO[C@@H](C2CCCCC2)C1 [Ex 1.128] | 15400 | 870 |
